In US20250275537A1, “CARBOXAMIDE APYRASE INHIBITORS” (Texas Crop Science, Inc., priority 2024, published 2025):

Tested on: apyrase
Assay: Apyrase inhibition assay (Method 1)
Format: biochemical
Settings: inhibitor conc at 1 mM stock, 10 μl per well; 1 hr room temperature; rounded average of at least two assay results
Experimental: Apyrase inhibitors useful as enhancers of pesticidal activity are assessed using an in vitro assay. The method of Windsor, Bio Techniques 33:1024-1030 (November 2002) was used as follows
96 well plates were used for the assay: (Greiner bio-one: REF-655901-96 well, PS, F-bottom, Clear, Non-binding)
• Reaction Buffer: 60 mM Hepes, 3 mM MgCl2, 3 mM CaCl2 and 3 mM ATP (pH 6.5) • Development Buffer A: 2% aqueous ammonium molybdate • Development Buffer B: 11% ascorbic acid in 37.5% TCA in water • Stop buffer C: 2% trisodium citrate in 2% acetic acid solution in water • Add 100 μl of reaction buffer to each well. • Add 10 μl of DMSO (control) or inhibitor/compound or compounds such as N1915 or orthovanadate to each well. (use inhibitor conc at 1 mM; orthovanadate at 2 mM and N1915 at 1 mM) • Add 10 μl of apyrase (concentration based on optimization —Dilute 1 U/μl enzyme to different concentrations such as 0.1U, 0.05U, 0.0025, 0.001U, 0.0005U—to find a good range) • Incubate plate at room temperature for 1 hr • Mix development buffer A and B in the ratio of 1:1.5 (just before use). • Add 50 ul of A:B mix in each well (incubate for 2 mins) • Add 50 ul of C in each well • Measure/Read Absorbance of plate @630 nm
Inhibitory data for the apyrase assay described above are provided for selected compounds in Table 3. In Table 3, D indicates inhibition of <10%.
With reference to Table 3, percent inhibition of apyrase is reported as the rounded average of at least two assay results.

| % Inhibition of Apyrase | SMILES |
| --- | --- |
| A (A indicates inhibition above 30%) | O=C(Nc1ccccc1)c1cccc(C(=O)Nc2cc3c(cc2Cl)OCO3)c1 [Compound I-4, N^1-(6-chlorobenzo[d][1,3]dioxol-5-yl)-N3-phenylisophthalamide] |
| D (D indicates inhibition of <10%) | O=C(Nc1ccccc1)c1ccc(C(=O)Nc2cnn(CC3CCCO3)c2)cc1 (stereo not shown) [Compound I-61, N^1-phenyl-N^4-(1-((tetrahydrofuran-2-yl)methyl)-1H-pyrazol-4-yl)terephthalamide] |
| D (D indicates inhibition of <10%) | Cc1nc(NC(=O)c2ccc(C(=O)Nc3ccccc3)cc2)n[nH]1 [Compound I-39, N^1-(5-methyl-1H-1,2,4-triazol-3-yl)-N^4-phenylterephthalamide] |
| D (D indicates inhibition of <10%) | CN1CCN(C(=O)c2ccccc2C(=O)Nc2ccc(F)cc2)CC1 [Compound I-53, N-(4-fluorophenyl)-2-(4-methylpiperazine-1-carbonyl)benzamide] |
| A (A indicates inhibition above 30%) | Cc1ccc(NC(=O)c2ccc(C(=O)Nc3ccc(C)cc3)cc2)cc1 [Compound I-1, N^1,N^4-di-p-tolylterephthalamide] |

Second part, the compound before the results:

| SMILES | % Inhibition of Apyrase |
| --- | --- |
| COC(C)(C)CNC(=O)c1ccc(C(=O)Nc2ccccc2)cc1 [Compound I-28, N^1-(2-methoxy-2-methylpropyl)-N^4-phenylterephthalamide] | C (C indicates inhibition of from 10% to 20%) |
| O=C(NCc1ncc[nH]1)c1ccc(C(=O)Nc2ccccc2)cc1 [Compound I-48, N^1-((1H-imidazol-2-yl)methyl)-N^4-phenylterephthalamide] | D (D indicates inhibition of <10%) |
| N#Cc1cccc(NC(=O)c2ccc(C(=O)Nc3cccc(C#N)c3)cc2)c1 [Compound I-67, N^1,N^4-bis(3-cyanophenyl)terephthalamide] | A (A indicates inhibition above 30%) |
| O=C(NCC#Cc1ccccc1)c1ccc(C(=O)Nc2ccccc2)cc1 [Compound I-23, N1-phenyl-N4-(3-phenylprop-2-yn-1-yl)terephthalamide] | C (C indicates inhibition of from 10% to 20%) |
| CC(NC(=O)c1cccc(C(=O)Nc2ccccc2)c1)C(=O)N1CCS(=O)(=O)CC1 (stereo not shown) [Compound I-32, N^1-(1-(1,1-dioxidothiomorpholino)-1-oxopropan-2-yl)-N^3-phenylisophthalamide] | C (C indicates inhibition of from 10% to 20%) |
| Nc1ccc(N2C(=O)c3ccccc3C2=O)c(Cl)c1 [Compound I-25, 2-(4-amino-2-chlorophenyl)isoindoline-1,3-dione] | C (C indicates inhibition of from 10% to 20%) |
| CNC(=O)c1cccc(C(=O)Nc2ccc(NS(=O)(=O)C(F)(F)F)cc2)c1 [Compound I-56, N^1-methyl-N^3-(4-((trifluoromethyl)sulfonamido)phenyl)iso-phthalamide] | D (D indicates inhibition of <10%) |
| O=C(NCc1ccccc1)c1ccccc1C(=O)NCc1ccccc1 [Compound I-30, N^1,N^2-dibenzylphthalamide] | C (C indicates inhibition of from 10% to 20%) |
| Cc1nncn1CCNC(=O)c1ccc(C(=O)Nc2ccccc2)cc1 [Compound I-49] | D (D indicates inhibition of <10%) |
| CN(C)C(=O)c1ccccc1C(=O)Nc1ccc2c(c1)OCCCO2 [Compound I-12, N^1-(3,4-dihydro-2H-benzo[b][1,4]dioxepin-7-yl)-N^2,N^2-dimethylphthalamide] | B (B indicates inhibition of from 20% to 30%) |
| O=C(Nc1cccc(N2CCCC2)c1)c1ccc2c(c1)C(=O)NC2=O [Compound I-10, 1,3-dioxo-N-(3-(pyrrolidin-1-yl)phenyl)isoindoline-5-carboxamide] | B (B indicates inhibition of from 20% to 30%) |
